One assay deals with beta amyloid 40. Put plainly: Aβ40/42 ELISA Assay: Aβ40. Type of assay: cell-based. As to conditions: Cricetulus griseus; CHO cells carrying the APP-REP-NL plasmid, 22 hours, sandwich ELISA of medium. As for the experimental part:
(§1) Pharmacology: Aβ40/42 ELISA Assay
(§2) Compounds are diluted from DMSO stocks to 2 μM and below in a cell culture medium. Compounds are then applied to CHO cells carrying the APP-REP-NL plasmid [Sudhir et. al, J. Biol. Chem. 267:25602-25608 (1992)] for a period of 22 hours. After the conditioning period, medium is collected, diluted in assay buffer containing protein, and samples, controls, and synthetic peptide standards are incubated on a prepared ELISA plate. Using a sandwich ELISA with antibodies specifically directed against the carboxyl terminus of beta amyloid 40 or 42 [analogous to the method reported by Haugabook et al., J. Neurosci. Methods 108:171-179 (2001) but using goat anti-mouse IgGl (source: Southern Biotech) as the anchor, 6E10 as the capture antibody (Source: SENETEK), rabbit antiαβ40 and antiαβB42 (source: QCB) and APL-donkey anti-rabbit IgG (H+L, source: Southern Biotech) as the detection antibody], the effect of the compound treatment on the cellular production of extracellular beta amyloid is quantified. Cells treated with compound are subsequently incubated in cell culture medium containing […]. After a short incubation period, MTS/medium containing plates are read in a spectrophotometer to determine the extent to which compound toxicity affected the cell's metabolism and ability to synthesize beta amyloid.
(§3) Test Samples: compound samples are supplied as 20 mM stock solutions in a 100% DMSO solution.
(§4) APP-REP-NL cells: Qualified cell lines are carried from week to week using 1:100 dilutions and are cultured in DMEM supplemented with 1× antibiotic/antimycotic, 200 μg/ml of G418 antibiotic, and 10% certified fetal calf serum. Cells are also banked in liquid nitrogen. Periodically, beta amyloid production is assessed, and cells are either kept in culture or replaced with progenitors at full expression.
(§5) Antibodies: Are from certified lots that have already been qualified in this assay. Antibodies are stored in small frozen aliquots at −80° C. that are thawed and used.
(§6) A compound is considered active if it has an EC50 for Aβ 40 reduction of <100 μM and no toxicity at doses in the vicinity the EC50.
Background: An ELISA detects its analyte on a solid surface through an enzyme-linked reagent.

Another assay deals with beta amyloid 42. Put plainly: Aβ40/42 ELISA Assay: Aβ42. The assay is classed as cell-based. As to conditions: Cricetulus griseus; CHO cells carrying the APP-REP-NL plasmid, 22 hours, sandwich ELISA of medium. The procedure:
as §1, §2, §3, §4, §5, §6

Broadly, the EC50 is the midpoint of the concentration-response curve. In the assay with beta amyloid 40, `COc1cccc(S(=O)(=O)NC(CO)C(C(F)(F)F)C(F)(F)F)c1` (stereo not drawn) [Example 12, 3-methoxy-N-[3,3,3-trifluoro-1-(hydroxymethyl)-2-(trifluoromethyl)propyl]benzenesulfonamide] returned an EC50 of 24.1 µM. With `O=S(=O)(NC(CO)C(C(F)(F)F)C(F)(F)F)c1cccc(Br)c1` (stereo not drawn) [Example 32, 3-bromo-N-(3,3,3-trifluoro-1-hydroxymethyl-2-trifluoromethyl-propyl)-benzenesulfonamide], the EC50 was found to be 19.8 µM with beta amyloid 40 and 25.3 µM with beta amyloid 42. Take `COc1ccc(S(=O)(=O)NC(CO)C(C(F)(F)F)C(F)(F)F)cc1` (stereo not drawn) [Example 11, 4-methoxy-N-[3,3,3-trifluoro-1-(hydroxymethyl)-2-(trifluoromethyl)propyl]benzenesulfonamide]: the EC50 in the assay on beta amyloid 40 was found to be 6.81 µM; with beta amyloid 42, 6.44 µM. Regarding `Cc1cc(S(=O)(=O)NC(CO)C(C(F)(F)F)C(F)(F)F)ccc1F` (stereo not drawn) [Example 25, 4-Fluoro-3-methyl-N-(3,3,3-trifluoro-1-hydroxymethyl-2-trifluoromethyl-propyl)-benzenesulfonamide], the EC50 with beta amyloid 40 is 6.63 µM; in the assay on beta amyloid 42 it was 8.37 µM.

For `O=[N+]([O-])c1cc(S(=O)(=O)NC(CO)C(C(F)(F)F)C(F)(F)F)ccc1Cl` (stereo not drawn) [Example 5, 4-Chloro-3-nitro-N-(3,3,3-trifluoro-1-hydroxymethyl-2-trifluoromethyl-propyl)-benzenesulfonamide], the EC50 was determined as 46 µM in the assay on beta amyloid 40 and 76.9 µM with beta amyloid 42. On to `O=S(=O)(NC(CO)C(C(F)(F)F)C(F)(F)F)c1ccc(C(F)(F)F)cc1` (stereo not drawn) [Example 17, N-[3,3,3-trifluoro-1-(hydroxymethyl)-2-(trifluoromethyl)propyl]-4-(trifluoromethyl)benzenesulfonamide], for which the EC50 in the assay on beta amyloid 40 turned out to be 2.29 µM; with beta amyloid 42, 1.94 µM. As to `O=S(=O)(NC(CO)C(C(F)(F)F)C(F)(F)F)c1cccc(C(F)(F)F)c1` (stereo not drawn) [Example 16, N-[3,3,3-trifluoro-1-(hydroxymethyl)-2-(trifluoromethyl)propyl]-3-(trifluoromethyl)benzenesulfonamide], in the assay on beta amyloid 40, the EC50 turned out to be 28.1 µM.

Consider `C[C@@H]([C@@H](CO)NS(=O)(=O)c1ccc(F)cc1)C(F)(F)F` [Example 48, 4-Fluoro-N-[(1S,2S)-3,3,3-trifluoro-1-(hydroxymethyl)-2-methylpropyl]benzenesulfonamide], for which the EC50 in the assay on beta amyloid 40 came out at 0.651 µM; with beta amyloid 42, 0.563 µM. `O=S(=O)(NC(CO)C(C(F)(F)F)C(F)(F)F)c1ccc(Cl)c(C(F)(F)F)c1` (stereo not drawn) [Example 4, 4-Chloro-N-(3,3,3-trifluoro-1-hydroxymethyl-2-trifluoromethyl-propyl)-3-trifluoromethyl-benzenesulfonamide]: the EC50 was found to be 37.7 µM with beta amyloid 40 and 89.9 µM in the assay on beta amyloid 42. With `O=S(=O)(NC(CO)C(C(F)(F)F)C(F)(F)F)c1cc(F)cc(F)c1` (stereo not drawn) [Example 22, 3,5-Difluoro-N-(3,3,3-trifluoro-1-hydroxymethyl-2-trifluoromethyl-propyl)-benzenesulfonamide], the figures for the half-maximal effective concentration (EC50) with beta amyloid 40 and with beta amyloid 42 were 5.72 µM and 6.34 µM, respectively.

Take `O=S(=O)(NC(CO)C(C(F)(F)F)C(F)(F)F)c1ccccc1F` (stereo not drawn) [Example 28, 2-fluoro-N-(3,3,3-trifluoro-1-hydroxymethyl-2-trifluoromethyl-propyl)-benzenesulfonamide]: the EC50 in the assay on beta amyloid 40 was determined as 23.4 µM; in the assay with beta amyloid 42, 44.2 µM. `CSc1cc(S(=O)(=O)NC(CO)C(C(F)(F)F)C(F)(F)F)ccc1Cl` (stereo not drawn) [Example 23, 4-Chloro-3-methylsulfanyl-N-(3,3,3-trifluoro-1-hydroxymethyl-2-trifluoromethyl-propyl)-benzenesulfonamide] came in with an EC50 in the assay with beta amyloid 40 of 22.3 µM. That is a double-digit micromolar value. In the case of `CC(=O)c1cccc(S(=O)(=O)NC(CO)C(C(F)(F)F)C(F)(F)F)c1` (stereo not drawn) [Example 6, 3-Acetyl-N-(3,3,3-trifluoro-1-hydroxymethyl-2-trifluoromethyl-propyl)-benzenesulfonamide], the values for the EC50 with beta amyloid 40 and with beta amyloid 42 were 13.4 µM and 11.2 µM, respectively. In the case of `O=S(=O)(NC(CO)C(C(F)(F)F)C(F)(F)F)c1ccc(Cl)c(F)c1` (stereo not drawn) [Example 24, 4-Chloro-3-fluoro-N-(3,3,3-trifluoro-1-hydroxymethyl-2-trifluoromethyl-propyl)-benzenesulfonamide], the values for the half-maximal effective concentration (EC50) in the assay with beta amyloid 40 and with beta amyloid 42 were 1.09 µM and 1.14 µM, respectively. On to `C[C@H]([C@@H](CO)NS(=O)(=O)c1ccc(Cl)cc1)C(F)(F)F` [Example 44, 4-Chloro-N-[(1S,2R)-3,3,3-trifluoro-1-(hydroxymethyl)-2-methylpropyl]benzenesulfonamide], for which the 50% effective concentration (EC50) in the assay with beta amyloid 40 amounted to 2.94 µM; in the assay on beta amyloid 42, 3.51 µM. Consider `O=S(=O)(NC(CO)C(C(F)(F)F)C(F)(F)F)c1ccccc1` (stereo not drawn) [Example 33, N-(3,3,3-trifluoro-1-hydroxymethyl-2-trifluoromethyl-propyl)-benzenesulfonamide], for which the EC50 with beta amyloid 40 was 6.26 µM; in the assay with beta amyloid 42 it was 7.02 µM. Consider `O=S(=O)(NC(CO)C(C(F)(F)F)C(F)(F)F)c1ccc(OC(F)F)cc1` (stereo not drawn) [Example 7, 4-(difluoromethoxy)-N-[3,3,3-trifluoro-1-(hydroxymethyl)-2-(trifluoromethyl)propyl]benzenesulfonamide], for which the EC50 with beta amyloid 40 stood at 4.46 µM; in the assay on beta amyloid 42, 4.02 µM.

Consider `O=S(=O)(N[C@H](CO)C(C(F)(F)F)C(F)(F)F)c1ccc(Cl)c(Cl)c1` [Example 41, (S)-3,4-Dichloro-N-[3,3,3-trifluoro-1-(hydroxymethyl)-2-(trifluoromethyl)propyl]benzene sulfonamide], for which the concentration giving a half-maximal response (EC50) in the assay on beta amyloid 40 turned out to be 5.57 µM; in the assay with beta amyloid 42, 5.37 µM.

Regarding `O=S(=O)(NC(CO)C(C(F)(F)F)C(F)(F)F)c1ccc(F)cc1F` (stereo not drawn) [Example 35, 2,4-difluoro-N-(3,3,3-trifluoro-1-hydroxymethyl-2-trifluoromethyl-propyl)-benzenesulfonamide], the EC50 in the assay with beta amyloid 40 is 9.77 µM; in the assay on beta amyloid 42 it was 11.2 µM.

With `O=S(=O)(NC(CO)C(C(F)(F)F)C(F)(F)F)c1cccc(Cl)c1Cl` (stereo not drawn) [Example 37, 2,3-dichloro-N-(3,3,3-trifluoro-1-hydroxymethyl-2-trifluoromethyl-propyl)-benzenesulfonamide], the results for the EC50 in the assay on beta amyloid 40 and in the assay with beta amyloid 42 were 11.1 µM and 14 µM, respectively.

With `O=[N+]([O-])c1ccc(S(=O)(=O)NC(CO)C(C(F)(F)F)C(F)(F)F)cc1` (stereo not drawn) [Example 19, 4-nitro-N-(3,3,3-trifluoro-1-hydroxymethyl-2-trifluoromethyl-propyl)-benzenesulfonamide], the EC50 in the assay on beta amyloid 40 stood at 27.8 µM; in the assay with beta amyloid 42, 26.8 µM. As for `CCCc1ccc(S(=O)(=O)NC(CO)C(C(F)(F)F)C(F)(F)F)cc1` (stereo not drawn) [Example 13, 4-propyl-N-[3,3,3-trifluoro-1-(hydroxymethyl)-2-(trifluoromethyl)propyl]benzenesulfonamide], in the assay with beta amyloid 40, a half-maximal effect (EC50) was put at 18 µM. With `O=S(=O)(NC(CO)C(C(F)(F)F)C(F)(F)F)c1cccc(OC(F)F)c1` (stereo not drawn) [Example 8, 3-(difluoromethoxy)-N-[3,3,3-trifluoro-1-(hydroxymethyl)2-(trifluoromethyl)propyl]benzenesulfonamide], the EC50 in the assay on beta amyloid 40 came out at 47.9 µM. With `O=S(=O)(NC(CO)C(C(F)(F)F)C(F)(F)F)c1cc(Cl)cc(Cl)c1` (stereo not drawn) [Example 36, 3,5-dichloro-N-(3,3,3-trifluoro-1-hydroxymethyl-2-trifluoromethyl-propyl)-benzenesulfonamide], a half-maximal response in the assay on beta amyloid 40 (EC50) required 64 µM.

Source of the values: patent US7550629B2, “Trifluoromethyl-containing phenylsulfonamide beta amyloid inhibitors” (Wyeth, priority 2006, dated 2009).
